Literature values as cited in patent US20190269627A1, “MEMANTINE COMBINATIONS AND USE” (Chase Pharmaceuticals Corporation, priority 2016, published 2019).

Tested on: mice
Conditions: 2 mg/kg

CC12CC3CC(C)(C1)CC(N)(C3)C2 [memantine, 3,5-dimethyladamantan-1-amine]
effect on scopolamine-induced learning deficits in the water maze: reverses scopolamine-induced learning deficits
